The test system of one data set is Boophilus microplus. The data set can be described thus: Boophilus microplus test (BOOPMI injection). The following applies: application rate 20 μg/animal; injected into the abdomen; after 7 days. The class given is in vivo. As for the experimental part:
Boophilus microplus Test (BOOPMI Injection) Solvent: dimethyl sulphoxide To prepare an appropriate active ingredient formulation, 10 mg of active ingredient are mixed with 0.5 ml of solvent and the concentrate is diluted with solvent to the desired concentration. The active ingredient solution is injected into the abdomen (Boophilus microplus), and the animals are transferred into dishes and stored in a climate-controlled room. After 7 days, the efficacy in % is determined. The activity is assessed by laying of fertile eggs. 100% means that none of the ticks has laid any fertile eggs.

Another data set relates to Ctenocephalides felis. The data set can be described thus: Ctenocephalides felis oral (CTECFE). The class given is in vivo. The following applies: application rate 100 ppm in citrated cattle blood; after 2 days. As for the experimental part:
Ctenocephalides felis Oral ([…]) Solvent: 1 part by weight of dimethyl sulphoxide For the purpose of preparing an appropriate active ingredient formulation, 10 mg of active ingredient are mixed with 0.5 ml of dimethyl sulphoxide. A portion of the concentrate is diluted with citrated cattle blood, and the desired concentration is prepared. About 20 unfed adult fleas (Ctenocephalides felis) are placed into a chamber which is closed at the top and bottom with gauze. A metal cylinder whose bottom end is closed with Parafilm is placed onto the chamber. The cylinder contains the blood/active ingredient formulation, which can be imbibed by the fleas through the Parafilm membrane. After 2 days, the kill in % is determined 100% means that all of the fleas have been killed; 0% means that none of the fleas have been killed.

Another data set concerns Lucilia cuprina larvae. Briefly: Lucilia cuprina test (LUCICU). It counts as in vivo. Conditions: application rate 100 ppm; treated horse meat; after 2 days. As for the experimental part:
Lucilia cuprina Test (LUCICU) Solvent: dimethyl sulphoxide To prepare an appropriate active ingredient formulation, 10 mg of active ingredient are mixed with 0.5 ml of dimethyl sulphoxide and the concentrate is diluted with water to the desired concentration. Vessels containing horse meat treated with the active ingredient formulation of the desired concentration are populated with about 20 Lucilia cuprina larvae. After 2 days, the kill in % is determined. 100% means that all of the larvae have been killed; 0% means that none of the larvae have been killed.

In another data set the test system is Phaedon cochleariae. Briefly: Phaedon test (PHAECO spray treatment). The class given is in vivo. The following applies: application rate 100 g/ha, Chinese cabbage leaf discs, after 7 days. The gist of the method:
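Larval mortality was assessed 7 days after Phaedon cochleariae larvae were placed on dried, spray-treated Brassica pekinensis leaf discs. The formulation was an acetone/dimethylformamide concentrate with alkylaryl polyglycol ether emulsifier, diluted in emulsifier-containing water. Results are given as % kill, from 0 (no larvae dead) to 100 (all dead).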

Another data set relates to Spodoptera frugiperda. The data set can be described thus: Spodoptera frugiperda test (SPODFR spray treatment). It counts as in vivo. Conditions: application rate 100 g/ha; maize leaf discs; after 7 days. The procedure, abridged:
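Mortality read-out at 7 days, given as % efficacy, where 100% means every caterpillar dead and 0% none. Caterpillars were placed on dried maize leaf discs that had been sprayed with test formulation. That formulation was an acetone/dimethylformamide concentrate diluted in emulsifier-containing water.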

The next data set has as its system Tetranychus urticae. Briefly: Tetranychus test, OP-resistant (TETRUR spray treatment). The class given is in vivo. The following applies: bean leaf discs, after 6 days. The procedure: Tetranychus Test, OP-Resistant (TETRUR Spray Treatment)
Solvent: 78.0 parts by weight of acetone • • 1.5 parts by weight of dimethylformamide
Emulgator: 0.5 part by weight of alkylaryl polyglycol ether
To produce an appropriate active ingredient formulation, 1 part by weight of active ingredient is mixed with the stated amounts of solvent and emulsifier, and the concentrate is diluted with emulsifier-containing water to the desired concentration.
Discs of bean leaves (Phaseolus vulgaris) infested by all stages of the red spider mite (Tetranychus urticae) are sprayed with an active ingredient formulation of the desired concentration.
After 6 days, the efficacy in % is determined. 100% means that all of the spider mites have been killed; 0% means that none of the spider mites have been killed.

A further data set is described as follows: logP (HPLC-MS). It counts as physicochemical.
For another data set, the system named is adult Musca domestica. The data set can be described thus: Musca domestica test (MUSCDO). It counts as in vivo. Conditions: application rate 100 ppm; treated sponge; after 2 days. The procedure: Musca domestica Test (MUSCDO) Solvent: dimethyl sulphoxide To prepare an appropriate active ingredient formulation, 10 mg of active ingredient are mixed with 0.5 ml of dimethyl sulphoxide and the concentrate is diluted with water to the desired concentration. Vessels containing a sponge treated with the active ingredient formulation of the desired concentration are populated with adult Musca domestica. After 2 days, the kill in % is determined 100% means that all of the flies have been killed; 0% means that none of the flies have been killed.

Setting [1] is: HPLC, reversed-phase column (C18), acidic range pH 2.7, acetonitrile (0.1% formic acid)/water gradient, 43° C., calibration with unbranched alkan-2-ones.

SMILES strings stand for the structures. Where two headings read alike, the source gives them in different places.

Consider `CCn1c(C(=O)NC(c2cccc(Cl)c2)C(F)(F)F)cc2cc(C(=O)NC3CC3)c(Cl)cc21` (centres unmarked) [Compound 2], for which, in the data set on Boophilus microplus, the “efficacy (laying of fertile eggs)” value is listed as 100%. Further, the “efficacy (kill in %)” value came out at 95% in the data set with Ctenocephalides felis and 100% with Lucilia cuprina larvae. For the same compound, the efficacy in % in the data set with Phaedon cochleariae, with Spodoptera frugiperda and in the data set with Tetranychus urticae (application rate 500 g/ha) was 100% each time. Moreover, in “logP (HPLC-MS)” (setting [1]), the log p was 3.65.
Turning to `CCn1c(C(=O)NC(c2cccc(C(F)(F)F)c2)C(F)(F)F)cc2cc(C(=O)NCC(C)(F)F)c(Cl)cc21` (centres unmarked) [Compound 10], in the data set on Boophilus microplus, the “efficacy (laying of fertile eggs)” value was 100%. For the same compound, the “efficacy (kill in %)” value in the data set with Ctenocephalides felis is on record as 95%; in the data set with Lucilia cuprina larvae it was 100%; in the data set on adult Musca domestica, 100%. Besides, the efficacy in % in the data set on Phaedon cochleariae worked out at 100%; with Spodoptera frugiperda it was 83%. The log p in “logP (HPLC-MS)” (setting [1]) was found to be 4.06.
For the compound `CCn1c(C(=O)NC(c2cccc(C(F)(F)F)c2)C(F)(F)F)cc2cc(C(=O)NC(C)(C)C#N)c(Cl)cc21` (centres unmarked) [Compound 15], the “efficacy (laying of fertile eggs)” value in the data set on Boophilus microplus was 100%. In addition, the “efficacy (kill in %)” value in the data set with Ctenocephalides felis, with Lucilia cuprina larvae and in the data set with adult Musca domestica was 100% each time. The efficacy in % with Phaedon cochleariae and in the data set with Spodoptera frugiperda was 100% throughout. The compound also returned a log p in the data set “logP (HPLC-MS)” (setting [1]) of 3.89.
Regarding `CCn1c(C(=O)NC(c2ccc(F)c(C(F)(F)F)c2)C(F)(F)F)cc2cc(C(=O)NCC(F)F)c(Cl)cc21` (centres unmarked) [Compound 19, 6-chloro-N^5-(2,2-difluoroethyl)-1-ethyl-N^2-{2,2,2-trifluoro-1-[4-fluoro-3-(trifluoromethyl)phenyl]ethyl}-1H-indole-2,5-dicarboxamide], in the data set with Boophilus microplus, the “efficacy (laying of fertile eggs)” value amounted to 100%. Also, the “efficacy (kill in %)” value in the data set with Ctenocephalides felis, in the data set on Lucilia cuprina larvae and in the data set on adult Musca domestica was 100% each time. Moreover, the pest or weed control at 100 g/ha in the data set on Phaedon cochleariae (Phaedon cochleariae, foliar, 168 h, read-out: efficacy in %) was 100%. Also, the chromatographic logP in the data set “logP (HPLC-MS)” (HPLC, reversed-phase column (C18), acidic range pH 2.7, acetonitrile (0.1% formic acid)/water gradient, 43° C., calibration with unbranched alkan-2-ones, read-out: log p) was 4.03; in the data set “logP (HPLC-MS)” (HPLC-MS) it was 5.16.
Consider `CCn1c(C(=O)NC(c2cccc(C(F)(F)F)c2)C(F)(F)F)cc2cc(C(=O)NC3(C(=O)OC)CC3)c(Cl)cc21` (centres unmarked) [Compound 28], for which the “efficacy (laying of fertile eggs)” value in the data set with Boophilus microplus was 100%. Further, the entries for the “efficacy (kill in %)” value in the data set on Ctenocephalides felis and with Lucilia cuprina larvae were 95% and 100%, respectively. For the same compound, the efficacy in % in the data set on Phaedon cochleariae is recorded as 100%; with Spodoptera frugiperda, 83%; with Tetranychus urticae (application rate 500 g/ha), 100%. Moreover, the log p in the data set “logP (HPLC-MS)” (setting [1]) amounted to 3.86.
On to `CCn1c(C(=O)NC(c2cccc(C(F)(F)F)c2)C(F)(F)F)cc2cc(C(=O)NC3(C#N)CCC3)c(Cl)cc21` (centres unmarked) [Compound 36], for which the “efficacy (laying of fertile eggs)” value with Boophilus microplus is listed as 100%. Further, the “efficacy (kill in %)” value is 100% in the data set on Ctenocephalides felis and 95% in the data set on Lucilia cuprina larvae. Moreover, the efficacy in % with Phaedon cochleariae, with Spodoptera frugiperda and in the data set on Tetranychus urticae (application rate 100 g/ha) was 100% each time. For the same compound, the log p in the data set “logP (HPLC-MS)” (setting [1]) turned out to be 4.09.
As to `CCn1c(C(=O)NC(c2cccc(Cl)c2)C(F)(F)F)cc2cc(C(=O)NC3(C#N)CC3)c(Cl)cc21` (centres unmarked) [Compound 39], in the data set on Boophilus microplus, the “efficacy (laying of fertile eggs)” value was determined as 100%. The “efficacy (kill in %)” value in the data set on Ctenocephalides felis and in the data set with Lucilia cuprina larvae was 100% in each case. For the same compound, the efficacy in % with Phaedon cochleariae, with Spodoptera frugiperda and in the data set on Tetranychus urticae (application rate 100 g/ha) was 100% throughout. In the data set “logP (HPLC-MS)” (setting [1]), this compound showed a log p of 3.67.
Regarding `Cn1c(C(=O)NC(c2cccc(Br)c2)C(F)(F)F)cc2cc(C(=O)NC3(C#N)CC3)c(Cl)cc21` (centres unmarked) [Compound 48], the “efficacy (laying of fertile eggs)” value with Boophilus microplus came to 100%. The “efficacy (kill in %)” value in the data set with Ctenocephalides felis and in the data set on Lucilia cuprina larvae was 100% throughout. Besides, the efficacy in % in the data set with Phaedon cochleariae, in the data set on Spodoptera frugiperda and with Tetranychus urticae (application rate 100 g/ha) was 100% each time. For the same compound, the log p in the data set “logP (HPLC-MS)” (setting [1]) amounted to 3.39.
